Results on 10 molecules are retold here after PMC7881127, “Cholesterol as a modulator of cannabinoid receptor CB2 signaling” (Scientific Reports, 2021).

“Also recorded” adds a separate entry of the source.

One assay deals with CB2 receptor. Also noted: method as in PMID 30639103, PMID 18931146. As to conditions: previously reported; cited from earlier work.
Assay [1] concerns the target T1, hCB2 (Homo sapiens, UniProt P34972).
T1 construct: purchased PerkinElmer ES111-M400UA; host or cells: CHO-K1 cells stably transfected
The experiment in a line: [35S]GTPγS binding assay in hCB2-CHO-K1 cell membranes. In kind it is biochemical. The note with it: for Emax: read-out: GTPγS binding Emax; for Functional effect on G-protein signaling (pharmacological category) / Reduced basal signaling: hCB2-expressing CHO cell membranes (PerkinElmer). The method, then: Figure 2 Affinity and functional effects of novel MRI ligands on CB2 receptor in CHO cell membranes. (a) binding affinities (nM) and Emax (% and nM) of [^35S]-GTPγS binding to CHO membranes (PerkinElmer, Cat. No ES111-M400UA) expressing hCB2. (b) [^35S]-GTPγS binding to membranes as a factor of ligand concentration. Binding of [^35S]-GTPγS was determined as described in “Methods”. Non-specific binding was defined as 0% activity. The assay of GTPγS non-specific binding contains non-radioactive GTPγS.
[^35S] GTPγS binding was assayed as described earlier[65] with slight modifications. Briefly, hCB2-CHO-K1 cell membranes (4 µg) were incubated with 0.05 nM [^35S] GTPγS, and the indicated concentrations of ligands in TEM buffer (50 mM Tris–HCl, 0.2 mM EGTA, and 9 mM MgCl2, pH 7.4) containing 100 µM GDP, 150 mM NaCl, and 0.1% (w/v) bovine serum albumin in a total volume of 1 ml for 60 min at 30 °C.

For assay [2], the target named is T1, hCB2. Nature of the assay: Radioligand ([3H]CP-55,940) displacement binding in hCB2-CHO-K1 cell membranes. The note with it: hCB2-expressing CHO cell membranes (PerkinElmer), [3H]CP-55,940 displacement; read-out: CB2R binding hCB2R-Ki. The method, then: The assay was performed as described previously. […] Plasma membranes were from cultured CHO-K1 cells stably transfected with human CB2R (Perkin Elmer). Two microgram plasma membrane protein was used in a 1 mL reaction mixture. Ki values were derived by computerized curve fitting and using the Cheng-Prusoff equation to account for the affinity of the radioligand, using the GraphPad Prism 8 program (GraphPad Prism Software Inc.).

Another assay addresses cannabinoid receptor CB2 (Homo sapiens, UniProt P34972). Nature of the assay: [35S]GTP nucleotide exchange (GEF) G protein activation assay on CB2 in cell membrane preparations. Also noted: purchased PerkinElmer; Millipore ChemiScreen; Applied Cell Sciences; Signal Screen (Sf9); E. coli BL21 (DE3) and Expi293F membranes were made in house; ES111-M400UA; A318; 6110130; host or cells: CHO, CHO-K1, Sf9, Expi293F, Expi293F GNTI-, E. coli BL21 (DE3). It counts as biochemical. The note with it: for Pharmacological category in GEF assay: ligand 2 μM. From the text: To better understand the reason for these discrepancies, we assessed the activation of CB2 receptor by the in vitro G protein activation assay that measures the rates of nucleotide exchange on the Gα subunit of G protein (GEF assay) as described previously[33],[34]. The assay reports the rates of formation of the complex of [^35S]-GTPγS, a homolog of GTP, with the Gα subunit of G protein. Typical assay conditions require small (nanogram) quantities of the receptor protein either in cell membranes or reconstituted into lipid bilayers. The readout of the assay is the amount of the non-hydrolysable complex of Gα with [^35S]-GTPγS which, under selected experimental conditions, is proportional to the amount of activated receptor in the assay.
Figure 3 GEF of CB2 expressed in: (a) E. coli membranes and (b) CHO membranes (Millipore EMD). 2 μg of total protein per assay. Each point represents an average of four independent measurements (n = 4). Ligands were added at a concentration of 2 μM to ensure saturation of the receptor, and G protein was added as described in “Methods”. The dotted line indicates the rates of activation of G protein in the absence of a ligand. The rates of activation with […] are set to 100%, and rates of activation in the presence of SR-144,528 to 0%.
Figure 4 GEF on CB2 expressed in different cell lines. An amount of 2 μg of membrane protein per assay was used. Each data points represents an average of four independent measurements (n = 4) with error rates indicated by the bars. 100% represents full activation in the presence of 2 μM of CP-55,940, and 0%–with 2 μM SR-144,528.
The subunits of G protein were expressed and purified as described previously. The nucleotide exchange assay was performed as previously described.

A further assay relates to microglia. Set-up: method as in PMID 16343349. As to conditions: cited from earlier work.
A further assay concerns natural killer cells. Set-up: method as in PMID 15749836. The note with it: cited from earlier work.
Where [3] appears, read: CB2 in CHO membranes (EMD Millipore).
The mark [4] stands for this setting: CB2 in E. coli BL21 (DE3) membranes (untreated).

T1 sequence (P34972 whole entry): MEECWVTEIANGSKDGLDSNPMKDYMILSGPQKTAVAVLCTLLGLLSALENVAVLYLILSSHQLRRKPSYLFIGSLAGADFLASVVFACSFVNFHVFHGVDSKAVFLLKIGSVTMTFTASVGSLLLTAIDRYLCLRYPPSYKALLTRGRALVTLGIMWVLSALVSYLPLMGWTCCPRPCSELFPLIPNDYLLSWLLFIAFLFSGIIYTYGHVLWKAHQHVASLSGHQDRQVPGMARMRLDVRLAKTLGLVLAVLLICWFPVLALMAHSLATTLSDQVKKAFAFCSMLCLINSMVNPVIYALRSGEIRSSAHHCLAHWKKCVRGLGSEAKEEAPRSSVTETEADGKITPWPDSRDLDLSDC
cannabinoid receptor CB2, sequence (P34972 whole entry): as above

For `COCCn1c(C)c(C)s/c1=N\C(=O)C1C(C)(C)C1(C)C` [A-836339, 2,2,3,3-tetramethyl-cyclopropanecarboxylic acid [3-(2-methoxy-ethyl)-4,5-dimethyl-3H-thiazol-(2Z)-ylidene]-amide, reference compound], in the assay with CB2 receptor, the “Activity on the CB2 receptor (category)” value is recorded as “agonist”.

As a reminder, the Emax is the maximal effect, on the per cent scale that the assay sets. Regarding `CCCCCCC(C)(C)c1ccc([C@@H]2C[C@H](O)CC[C@H]2CCCO)c(O)c1` [CP55,940, 2-[(1R,2R,5R)-5-Hydroxy-2-(3-hydroxypropyl)cyclohexyl]-5-(2-methyloctan-2-yl)phenol, reference compound], the Emax on hCB2 [1] was 275 ± 4%.

A word on the Ki: it is a dissociation constant, usually derived from enzyme kinetics or from competition with a known ligand. A word on the EC50: it is the concentration giving half of the maximal effect. In the case of `CC(=O)OCCn1c(C)c(C)s/c1=N\C(=O)C1C(C)(C)C1(C)C` [MRI-2594], at hCB2 [2], the Ki came to 0.031 nM. Further, on hCB2 [1], the EC50 is 0.09 nM, the “Functional effect on G-protein signaling (pharmacological category)” value (from here on “Functional effect … (pharmacological category)”) is “full agonism” and the Emax was 276 ± 4%. Further, the “Activity on the CB2 receptor (category)” value in the assay on CB2 receptor is reported as “agonist”. Besides, the “Pharmacological category in GEF assay” value on cannabinoid receptor CB2 (setting [3]) was “(less-strong) agonist”. For the same molecule, at cannabinoid receptor CB2 (setting [4]), the “Pharmacological category in GEF assay” value is recorded as “full agonist; also recorded: strong agonist”.

Turning to `COc1ccc2c(c1)sc(=NC(=O)C1C(C)(C)C1(C)C)n2CCOC(C)=O` [MRI-2653, 2-(6-Methoxy-2-((2,2,3,3-tetramethylcyclopropane-1-carbonyl)imino)benzo[d]thiazol-3(2H)-yl)ethyl acetate], on hCB2 [2], the Ki came out at 0.094 ± 0.011 nM. Also, at hCB2 [1], the EC50 was found to be 0.5 ± 0.09 nM, the “Functional effect … (pharmacological category)” value is given as “inverse agonism”, the Reduced basal signaling worked out at 55% and the Emax was -46 ± 2%.

Consider `CC(=O)OCCn1c(=NC(=O)C2C(C)(C)C2(C)C)sc2cc(Br)ccc21` [MRI-2654, 2-(6-Bromo-2-((2,2,3,3-tetramethylcyclopropane-1-carbonyl)imino)benzo[d]thiazol-3(2H)-yl)ethyl acetate], for which the Ki on hCB2 [2] turned out to be 0.079 ± 0.009 nM. Further, at hCB2 [1], the EC50 was 0.76 ± 0.04 nM, the “Functional effect … (pharmacological category)” value is reported as “inverse agonism; also recorded: inverse agonist”, the Reduced basal signaling was 55% and the Emax was -23 ± 3%.

As for `CC(=O)OCCn1c(=NC(=O)C2C(C)(C)C2(C)C)sc2cc(OC(F)(F)F)ccc21` [MRI-2659, 2-(2-((2,2,3,3-tetramethylcyclopropane-1-carbonyl)imino)-6-(trifluoromethoxy)benzo[d]thiazol-3(2H)-yl)ethyl acetate], the Ki at hCB2 [2] stood at 0.053 ± 0.01 nM. Besides, at hCB2 [1], it took 0.25 ± 0.1 nM to reach a half-maximal effect (EC50), the “Functional effect … (pharmacological category)” value was “inverse agonism”, the Reduced basal signaling was determined as 55% and the Emax is -55 ± 1%. For the same molecule, at cannabinoid receptor CB2 (setting [3]), the “Pharmacological category in GEF assay” value is “strong inverse agonist”. Besides, the “Pharmacological category in GEF assay” value at cannabinoid receptor CB2 (setting [4]) is listed as “strong inverse agonist”.

On to `CC(=O)OCCn1c(=NC(=O)C2C(C)(C)C2(C)C)sc2cc(C)ccc21` [MRI-2687, 2-(6-methyl-2-((2,2,3,3-tetramethylcyclopropane-1-carbonyl)imino)benzo[d]thiazol-3(2H)-yl)ethyl acetate], for which, on hCB2 [2], the Ki amounted to 0.1 ± 0.01 nM. On hCB2 [1], the EC50 turned out to be 1.23 ± 0.09 nM, the “Functional effect … (pharmacological category)” value is “inverse agonism”, the Reduced basal signaling is 55% and the Emax was -35 ± 1%. For the same molecule, the “Activity on the CB2 receptor (category)” value in the assay with CB2 receptor is on record as “inverse agonist”.

Turning to `CCCCCc1cc(O)c2c(c1)OC(C)(C)[C@@H]1CCC(C)=C[C@@H]21` [THC, Δ^9-tetrahydrocannabinol], the “CB2 activity in suppressing interferon-γ-induced activation of microglia” value in the assay on microglia is listed as “full CB2 agonist”. Also, the “CB2 activity on 2-AG-induced migration of natural killer cells” value with natural killer cells was “no CB2 agonist activity and acted as a CB2 antagonist”.

As for `CC(C)CCC[C@@H](C)[C@H]1CC[C@H]2[C@@H]3CC=C4C[C@@H](O)CC[C@]4(C)[C@H]3CC[C@]12C` [cholesterol], the “Effect on constitutive (basal) activity of the CB2 receptor” value at cannabinoid receptor CB2 (cell membrane preparations and liposomes) is reported as “increases”.

On to “methyl-β-cyclodextrin [MβCD, reference compound]”, for which, at cannabinoid receptor CB2 (Expi293F membranes treated with 20 mM MβCD), the “Effect on rates of activation of G protein on CB2” value is “decreased by about twofold”.
